Laboratory results as given in paper PMC5218480 (PLoS ONE, 2017).

Test system: MV-4-11 cells
Test: Gene expression microarray analysis (Affymetrix PrimeView) and GSEA
Assay type: cell-based, human
Design: RFU PODN (11730768_x_at) / Fold change /veh PODN (11730768_x_at) / RFU LINC00158 (11744669_a_at) / Fold change /veh LINC00158 (11744669_a_at) / RFU DUSP10 (11751237_a_at) / Fold change /veh DUSP10 (11751237_a_at) / RFU ID3 (11757404_x_at) / Fold change /veh ID3 (11757404_x_at) / RFU PLEKHG5 (11737974_s_at) / Fold change /veh PLEKHG5 (11737974_s_at) / RFU LRRC4B (11730491_at) / Fold change /veh LRRC4B (11730491_at) / RFU GIMAP4 (11747438_a_at) / Fold change /veh GIMAP4 (11747438_a_at) / RFU KRT8 (11758183_x_at) / Fold change /veh KRT8 (11758183_x_at) / RFU CNN1 (11734310_a_at) / Fold change /veh CNN1 (11734310_a_at) / RFU VPS37D (11726825_at) / Fold change /veh VPS37D (11726825_at) / RFU C10orf10 (11716522_x_at) / Fold change /veh C10orf10 (11716522_x_at) / RFU KIR2DL2 /// KIR2DL4 /// KIR2DL5A /// KIR2DL5B /// KIR2DS1 /// KIR2DS2 /// KIR2DS3 /// KIR2DS4 /// KIR3DL3 /// KIR3DL3 /// KIR3DS1 (11738374_at) / Fold change /veh KIR2DL2 /// KIR2DL4 /// KIR2DL5A /// KIR2DL5B /// KIR2DS1 /// KIR2DS2 /// KIR2DS3 /// KIR2DS4 /// KIR3DL3 /// KIR3DL3 /// KIR3DS1 (11738374_at) / RFU C1QL1 (11718748_at) / Fold change /veh C1QL1 (11718748_at) / RFU TMPRSS4 (11747572_a_at) / Fold change /veh TMPRSS4 (11747572_a_at) / RFU HAMP (11756126_x_at) / Fold change /veh HAMP (11756126_x_at) / RFU RNFT2 (11725882_a_at) / Fold change /veh RNFT2 (11725882_a_at) / RFU NR4A2 (11747474_a_at) / Fold change /veh NR4A2 (11747474_a_at) / RFU ABCC12 (11746883_a_at) / Fold change /veh ABCC12 (11746883_a_at) / RFU TMEM136 (11760407_x_at) / Fold change /veh TMEM136 (11760407_x_at) / RFU CLDN22 /// WWC2 (11732394_at) / Fold change /veh CLDN22 /// WWC2 (11732394_at) / RFU HLA-DPB1 (11760878_x_at) / Fold change /veh HLA-DPB1 (11760878_x_at) / RFU SPINT1 (11716480_a_at) / Fold change /veh SPINT1 (11716480_a_at) / RFU GAP43 (11754022_s_at) / Fold change /veh GAP43 (11754022_s_at) / RFU A4GNT (11735810_at) / Fold change /veh A4GNT (11735810_at) / RFU PRB3 (11715151_x_at) / Fold change /veh PRB3 (11715151_x_at) / RFU TUBB4B (11761932_at) / Fold change /veh TUBB4B (11761932_at) / RFU CAPN14 (11732068_a_at) / Fold change /veh CAPN14 (11732068_a_at) / RFU TMCC2 (11721928_a_at) / Fold change /veh TMCC2 (11721928_a_at) / RFU IRGQ (11745062_a_at) / Fold change /veh IRGQ (11745062_a_at) / RFU FAM174B (11720279_a_at) / Fold change /veh FAM174B (11720279_a_at) / RFU TMPRSS4 (11748680_a_at) / Fold change /veh TMPRSS4 (11748680_a_at) / RFU FAM212B (11763350_a_at) / Fold change /veh FAM212B (11763350_a_at) / RFU PLEKHG5 (11743358_a_at) / Fold change /veh PLEKHG5 (11743358_a_at) / RFU ZSCAN30 (11745921_a_at) / Fold change /veh ZSCAN30 (11745921_a_at) / RFU CMKLR1 (11741424_a_at) / Fold change /veh CMKLR1 (11741424_a_at) / RFU LOC101060620 /// MAPK8IP1 (11723275_at) / Fold change /veh LOC101060620 /// MAPK8IP1 (11723275_at) / RFU SPTSSB (11747773_x_at) / Fold change /veh SPTSSB (11747773_x_at) / RFU PRSS12 (11739890_at) / Fold change /veh PRSS12 (11739890_at) / RFU BIN1 (11741810_x_at) / Fold change /veh BIN1 (11741810_x_at) / RFU WNT11 (11732464_a_at) / Fold change /veh WNT11 (11732464_a_at) / RFU C10orf10 (11716521_a_at) / Fold change /veh C10orf10 (11716521_a_at) / RFU C5orf56 (11738089_at) / Fold change /veh C5orf56 (11738089_at) / RFU CYB561 (11721691_x_at) / Fold change /veh CYB561 (11721691_x_at) / RFU ANKRD19P (11752326_a_at) / Fold change /veh ANKRD19P (11752326_a_at) / RFU OR2T12 /// OR2T33 /// OR2T8 (11738714_s_at) / Fold change /veh OR2T12 /// OR2T33 /// OR2T8 (11738714_s_at) / RFU VCAN (11748164_a_at) / Fold change /veh VCAN (11748164_a_at) / RFU JSRP1 (11732532_at) / Fold change /veh JSRP1 (11732532_at) / RFU KRTAP10-11 (11738290_x_at) / Fold change /veh KRTAP10-11 (11738290_x_at) / RFU MYO3A (11730013_a_at) / Fold change /veh MYO3A (11730013_a_at) / RFU EBF3 (11725865_a_at) / Fold change /veh EBF3 (11725865_a_at) / RFU CAMK2N1 (11719241_x_at) / Fold change /veh CAMK2N1 (11719241_x_at) / RFU C5orf56 (11738088_a_at) / Fold change /veh C5orf56 (11738088_a_at) / RFU OLFML3 (11715873_a_at) / Fold change /veh OLFML3 (11715873_a_at) / RFU LOC100653217 /// NTM (11731650_a_at) / Fold change /veh LOC100653217 /// NTM (11731650_a_at) / RFU MAPK11 (11762145_a_at) / Fold change /veh MAPK11 (11762145_a_at) / RFU FIZ1 (11724087_x_at) / Fold change /veh FIZ1 (11724087_x_at) / RFU OASL (11726364_x_at) / Fold change /veh OASL (11726364_x_at) / RFU SOX15 (11748057_x_at) / Fold change /veh SOX15 (11748057_x_at) / RFU CD79A (11719716_a_at) / Fold change /veh CD79A (11719716_a_at) / RFU HIST1H1D (11736915_at) / Fold change /veh HIST1H1D (11736915_at) / RFU CASKIN2 (11723855_a_at) / Fold change /veh CASKIN2 (11723855_a_at) / RFU LOC730098 (11760151_x_at) / Fold change /veh LOC730098 (11760151_x_at) / RFU OR4N2 (11742367_at) / Fold change /veh OR4N2 (11742367_at) / RFU PRRT2 (11749266_a_at) / Fold change /veh PRRT2 (11749266_a_at) / RFU SNX32 (11753110_a_at) / Fold change /veh SNX32 (11753110_a_at) / RFU CDHR5 (11726645_a_at) / Fold change /veh CDHR5 (11726645_a_at) / RFU RCAN1 (11760418_a_at) / Fold change /veh RCAN1 (11760418_a_at) / RFU FAM167A (11723789_a_at) / Fold change /veh FAM167A (11723789_a_at) / RFU FAM26E (11764081_at) / Fold change /veh FAM26E (11764081_at) / RFU ISYNA1 (11749810_s_at) / Fold change /veh ISYNA1 (11749810_s_at) / RFU ACY1 (11761880_at) / Fold change /veh ACY1 (11761880_at) / RFU 11764098_at / Fold change /veh 11764098_at / RFU SAMD14 (11745864_x_at) / Fold change /veh SAMD14 (11745864_x_at) / RFU NPB (11741838_a_at) / Fold change /veh NPB (11741838_a_at) / RFU TMPRSS6 (11731388_a_at) / Fold change /veh TMPRSS6 (11731388_a_at) / RFU KRTAP10-2 (11738614_at) / Fold change /veh KRTAP10-2 (11738614_at) / RFU ARHGAP8 /// PRR5-ARHGAP8 (11727945_x_at) / Fold change /veh ARHGAP8 /// PRR5-ARHGAP8 (11727945_x_at) / RFU KRTAP5-7 /// NADSYN1 (11734609_at) / Fold change /veh KRTAP5-7 /// NADSYN1 (11734609_at) / RFU RASL12 (11751679_a_at) / Fold change /veh RASL12 (11751679_a_at) / RFU CDKN2B (11736163_a_at) / Fold change /veh CDKN2B (11736163_a_at) / RFU PRF1 (11729649_at) / Fold change /veh PRF1 (11729649_at) / RFU, ZNF638 /// ZNF638-IT1 / Fold change vs veh, ZNF638 /// ZNF638-IT1 / RFU, PANK3 / Fold change vs veh, PANK3 / RFU, SH3YL1 / Fold change vs veh, SH3YL1 / RFU, ZEB2 / Fold change vs veh, ZEB2 / RFU, NRIP1 / Fold change vs veh, NRIP1 / RFU, PTTG1IP / Fold change vs veh, PTTG1IP / RFU, CAPN2 / Fold change vs veh, CAPN2 / RFU, MED14 / Fold change vs veh, MED14 / RFU, SNORA58 / Fold change vs veh, SNORA58 / RFU, C1orf63 / Fold change vs veh, C1orf63 / RFU, LRRFIP1 / Fold change vs veh, LRRFIP1 / RFU, NDUFAF7 / Fold change vs veh, NDUFAF7 / RFU, SLC12A2 / Fold change vs veh, SLC12A2 / RFU, IBTK / Fold change vs veh, IBTK / RFU, ESF1 / Fold change vs veh, ESF1 / Fold change vs veh, TMEM50B / RFU, TAOK1 / Fold change vs veh, TAOK1 / RFU, ACBD3 / Fold change vs veh, ACBD3 / RFU, TMA16 / Fold change vs veh, TMA16 / RFU, RWDD3 / Fold change vs veh, RWDD3 / RFU, BCAT1 / Fold change vs veh, BCAT1 / RFU, EDEM3 / Fold change vs veh, EDEM3 / RFU, TMEM33 / Fold change vs veh, TMEM33 / RFU, WDR75 / Fold change vs veh, WDR75 / RFU, AHCTF1 / Fold change vs veh, AHCTF1 / RFU, TFRC / Fold change vs veh, TFRC / RFU, ZDHHC17 / Fold change vs veh, ZDHHC17 / RFU, NOM1 / Fold change vs veh, NOM1 / RFU, ARL8B / Fold change vs veh, ARL8B / RFU, ZBTB11 / Fold change vs veh, ZBTB11 / RFU, TAMM41 / Fold change vs veh, TAMM41 / RFU, KIAA1704 /// LOC100996395 / Fold change vs veh, KIAA1704 /// LOC100996395 / RFU, ING1 / Fold change vs veh, ING1 / RFU, TRMT61B / Fold change vs veh, TRMT61B / RFU, FUBP3 / Fold change vs veh, FUBP3 / RFU, TP53 / Fold change vs veh, TP53 / RFU, TNKS2 / Fold change vs veh, TNKS2 / RFU, ZFP14 / Fold change vs veh, ZFP14 / RFU, ACTR2 / Fold change vs veh, ACTR2 / RFU, PPP3R1 / Fold change vs veh, PPP3R1 / RFU, PIK3R1 / Fold change vs veh, PIK3R1 / RFU, HNRNPA1 / Fold change vs veh, HNRNPA1 / RFU, RNF170 / Fold change vs veh, RNF170 / RFU, ZNF28 / Fold change vs veh, ZNF28 / RFU, RNGTT / Fold change vs veh, RNGTT / RFU, OGT / Fold change vs veh, OGT / RFU, BRD1 / Fold change vs veh, BRD1 / RFU, MARS / Fold change vs veh, MARS / RFU, ZNF655 / Fold change vs veh, ZNF655 / RFU, FAHD1 / Fold change vs veh, FAHD1 / RFU, BDP1 / Fold change vs veh, BDP1 / RFU, LRRCC1 / Fold change vs veh, LRRCC1 / RFU, ARID1A / Fold change vs veh, ARID1A / RFU, ZNF146 / Fold change vs veh, ZNF146 / RFU, ZNF330 / Fold change vs veh, ZNF330 / RFU, GPN3 / Fold change vs veh, GPN3 / RFU, C9orf123 / Fold change vs veh, C9orf123 / RFU, N4BP2L2 / Fold change vs veh, N4BP2L2 / RFU, ARFIP1 / Fold change vs veh, ARFIP1 / RFU, FAM179B / Fold change vs veh, FAM179B / RFU, BCL10 / Fold change vs veh, BCL10 / RFU, UHRF1BP1L / Fold change vs veh, UHRF1BP1L / RFU, BET1 / Fold change vs veh, BET1 / RFU, CNOT2 / Fold change vs veh, CNOT2 / RFU, ZNF268 / Fold change vs veh, ZNF268 / Fold change vs veh, ZNF507 / RFU, DGCR2 / Fold change vs veh, DGCR2 / RFU, WDSUB1 / Fold change vs veh, WDSUB1 / Fold change vs veh, HSP90B1 /// MIR3652 / RFU, ADSS / Fold change vs veh, ADSS / RFU, GK / Fold change vs veh, GK / RFU, ZNF148 / Fold change vs veh, ZNF148 / RFU, TAF9 / Fold change vs veh, TAF9 / RFU, SLC1A5 / Fold change vs veh, SLC1A5 / RFU, SLMO2 / Fold change vs veh, SLMO2 / RFU, ABCC4 / Fold change vs veh, ABCC4 / RFU, LOC101060439 /// RAP1B / Fold change vs veh, LOC101060439 /// RAP1B / RFU, RFX7 / Fold change vs veh, RFX7 / RFU, GTPBP10 / Fold change vs veh, GTPBP10 / RFU, CNEP1R1 / Fold change vs veh, CNEP1R1 / RFU, BIVM-ERCC5 /// ERCC5 / Fold change vs veh, BIVM-ERCC5 /// ERCC5 / RFU, ILF3 / Fold change vs veh, ILF3 / RFU 11762660_at / Fold change /veh 11762660_at / RFU VCAN (11757783_s_at) / Fold change /veh VCAN (11757783_s_at) / RFU DDX43 (11728927_at) / Fold change /veh DDX43 (11728927_at) / RFU KRT8 (11758188_x_at) / Fold change /veh KRT8 (11758188_x_at) / RFU NKD1 (11759106_at) / Fold change /veh NKD1 (11759106_at) / RFU SRD5A1 (11742802_a_at) / Fold change /veh SRD5A1 (11742802_a_at) / RFU TPSAB1 /// TPSB2 (11721975_s_at) / Fold change /veh TPSAB1 /// TPSB2 (11721975_s_at) / RFU GSTM3 (11746129_a_at) / Fold change /veh GSTM3 (11746129_a_at) / RFU IL23R (11737362_x_at) / Fold change /veh IL23R (11737362_x_at) / RFU TMEM51 (11727254_a_at) / Fold change /veh TMEM51 (11727254_a_at) / RFU PIWIL2 (11732686_x_at) / Fold change /veh PIWIL2 (11732686_x_at) / RFU ORM1 (11744905_x_at) / Fold change /veh ORM1 (11744905_x_at) / RFU CCDC152 (11743942_at) / Fold change /veh CCDC152 (11743942_at) / RFU ECM1 (11717891_a_at) / Fold change /veh ECM1 (11717891_a_at) / RFU IL23R (11748794_a_at) / Fold change /veh IL23R (11748794_a_at) / RFU TNFAIP8L3 (11732012_x_at) / Fold change /veh TNFAIP8L3 (11732012_x_at) / RFU MBOAT4 (11741988_at) / Fold change /veh MBOAT4 (11741988_at) / RFU 11764193_at / Fold change /veh 11764193_at / RFU TMEM53 (11763286_at) / Fold change /veh TMEM53 (11763286_at) / RFU MAGEB2 (11727129_at) / Fold change /veh MAGEB2 (11727129_at) / RFU TMEM200A (11744735_a_at) / Fold change /veh TMEM200A (11744735_a_at) / RFU CCDC152 (11751479_a_at) / Fold change /veh CCDC152 (11751479_a_at) / RFU FAM211A (11726209_a_at) / Fold change /veh FAM211A (11726209_a_at) / RFU RGS16 (11746705_a_at) / Fold change /veh RGS16 (11746705_a_at) / RFU VCAN (11755009_s_at) / Fold change /veh VCAN (11755009_s_at) / RFU RHOB (11743442_s_at) / Fold change /veh RHOB (11743442_s_at) / RFU RGS16 (11720943_a_at) / Fold change /veh RGS16 (11720943_a_at) / RFU RGS16 (11720944_at) / Fold change /veh RGS16 (11720944_at) / RFU, VPS4B / Fold change vs veh, VPS4B / RFU, CREB1 / Fold change vs veh, CREB1 / RFU, DNAJC13 / Fold change vs veh, DNAJC13 / RFU, GNAQ / Fold change vs veh, GNAQ / RFU, CDK5R1 / Fold change vs veh, CDK5R1 / RFU, ZRANB3 / Fold change vs veh, ZRANB3 / RFU, CUL4A / Fold change vs veh, CUL4A / RFU, CCNY / Fold change vs veh, CCNY / RFU, UFL1 / Fold change vs veh, UFL1 / RFU, COG3 / Fold change vs veh, COG3 / RFU, DIAPH2 / Fold change vs veh, DIAPH2 / RFU, SKA2 / Fold change vs veh, SKA2 / RFU, AFF3 / Fold change vs veh, AFF3 / RFU, LMF1 / Fold change vs veh, LMF1 / RFU, IPO11 / Fold change vs veh, IPO11 / RFU, DFFB / Fold change vs veh, DFFB / RFU, FOXP1 / Fold change vs veh, FOXP1 / RFU, CARD8 / Fold change vs veh, CARD8 / RFU, STRN3 / Fold change vs veh, STRN3 / RFU, ADK / Fold change vs veh, ADK / RFU, RASSF2 / Fold change vs veh, RASSF2 / RFU, WIPF1 / Fold change vs veh, WIPF1 / RFU, LARP1B / Fold change vs veh, LARP1B / RFU, RASA1 / Fold change vs veh, RASA1 / RFU, RB1 / Fold change vs veh, RB1 / RFU, PPFIA1 / Fold change vs veh, PPFIA1 / RFU, MAT2A / Fold change vs veh, MAT2A / RFU, CCT5 / Fold change vs veh, CCT5 / RFU, WDR92 / Fold change vs veh, WDR92 / RFU, CUX1 / Fold change vs veh, CUX1 / RFU, TTC7A / Fold change vs veh, TTC7A / RFU, TMEM135 / Fold change vs veh, TMEM135 / RFU, DEPTOR / Fold change vs veh, DEPTOR / RFU, CPM / Fold change vs veh, CPM / RFU, DNAJB6 / Fold change vs veh, DNAJB6 / RFU, CACNA2D3 / Fold change vs veh, CACNA2D3 / RFU, DTX4 / Fold change vs veh, DTX4 / RFU, TFCP2 / Fold change vs veh, TFCP2 / RFU, GMCL1 /// GMCL1P1 / Fold change vs veh, GMCL1 /// GMCL1P1 / RFU, AEBP2 / Fold change vs veh, AEBP2 / RFU, SNHG1 /// SNORD22 /// SNORD25 /// SNORD26 /// SNORD27 /// SNORD28 /// SNORD29 /// SNORD31 / Fold change vs veh, SNHG1 /// SNORD22 /// SNORD25 /// SNORD26 /// SNORD27 /// SNORD28 /// SNORD29 /// SNORD31 / Fold change (Aza/veh), C12orf56 (ProbeSet 11735607_a_at) / Fold change (ACY-1035/veh), C12orf56 (ProbeSet 11735607_a_at) / Fold change (Aza/veh), FGFR1OP (ProbeSet 11751329_s_at) / Fold change (ACY-1035/veh), FGFR1OP (ProbeSet 11751329_s_at) / Fold change (Aza/veh), VPS36 (ProbeSet 11739960_a_at) / Fold change (ACY-1035/veh), VPS36 (ProbeSet 11739960_a_at) / RFU SYPL1 (11715823_x_at) / Fold change /veh SYPL1 (11715823_x_at) / RFU IGFBP7 (11715501_s_at) / Fold change /veh IGFBP7 (11715501_s_at) / RFU REEP3 (11722064_at) / Fold change /veh REEP3 (11722064_at) / RFU IGLL1 (11728026_x_at) / Fold change /veh IGLL1 (11728026_x_at): dose or concentration left out as unconfirmed
Details: ProbeSet 11720566_at; LIST D

For `Nc1ncn([C@@H]2O[C@H](CO)[C@@H](O)[C@H]2O)c(=O)n1` [azacitidine], the “Fold change vs veh, BCAT1” value was 0.67.
